In patent US20180213795A1, “PLANT DISEASE CONTROL COMPOSITION AND PLANT DISEASE CONTROL METHOD” (SUMITOMO CHEMICAL COMPANY, LIMITED, priority 2015, published 2018):

Legend:
Assay type in all cases: in vivo
[1] = system: damping-off fungus (Rhizoctonia solani); experiment: Test Example 23: soybean seed treatment, damping-off control in pots; settings: soybean seeds, 20 days after
[2] = system: damping-off fungus (Pythium spp.); experiment: Test Example 21: corn seed treatment, damping-off control in pots; settings: corn seeds, 20 days after
Protocol: In a rotary seed treatment machine (trade name: HEGE11, manufactured by WINTERSTEIGER), corn seeds (variety: yellow dent corn) were treated by smearing treatment using a flowable formulation of the present bacterial strain as obtained in Formulation Example 13 and ethaboxam flowable formulation (34.6% flowable formulation, Valent U.S.A. Corporation), so that the […] retain the present bacterial strain and/or the compound in the amount shown in Table 6.
Cultivation was carried out in a greenhouse under irrigation. Also, similar procedures were conducted using untreated corn seeds, instead of the treated corn seeds, as described above for the treated compartment (“untreated compartment”). The plants were investigated 20 days after for the number of diseased plants, and the disease incidence was calculated by the following “Equation 1”. The control value of the treated compartment was calculated by the following equation “Equation 2”, based on the disease incidences of the treated compartment and the untreated compartment.
Disease incidence (%)=100×(number of diseased plant/total number of seeded seeds): Equation 1
Control value (%)=100×[(disease incidence in […] in treated compartment)/disease incidence in untreated compartment]: Equation 2
If the effect by the combination of two active ingredients is greater than that of the estimated value E, which is calculated by the Colby's equation as follows, the effect is regarded as synergistic.
wherein, E=Control value when using the mixture of the active ingredients A and B at the concentrations m and n (amount of the active ingredient), respectively. X=Control value when using the active ingredient A at the concentration m (amount of the active ingredient). Y=Control value when using the active ingredient B at the concentration n (amount of the active ingredient).

[3] = system: damping-off fungus (Pythium spp.); experiment: Test Example 22: soybean seed treatment, damping-off control in pots; settings: soybean seeds, 20 days after
Protocol: If the effect by the combination of two active ingredients is greater than that of the estimated value E, which is calculated by the Colby's equation as follows, the effect is regarded as synergistic. E=X+Y-X·Y/100 wherein, E=Control value when using the mixture of the active ingredients A and B at the concentrations m and n (amount of the active ingredient), respectively. X=Control value when using the active ingredient A at the concentration m (amount of the active ingredient). Y=Control value when using the active ingredient B at the concentration n (amount of the active ingredient). […] Corporation) and metalaxyl flowable formulation (30.14% flowable formulation, trade name: […] Cultivation was carried out in a greenhouse under irrigation. Also, similar procedures were conducted using untreated soybean seeds, instead of the treated soybean seeds, as described above for the treated compartment (“untreated compartment”). […] Disease incidence (%)=100×(number of diseased plant/total number of seeded seeds): […]

CC1CC(C)(C)c2cccc(NC(=O)c3cn(C)nc3C(F)F)c21 (racemic) [The Carboxamide Compound (1)]
Control Value ([1]; carboxamide compound (1) 0.0004 g/kg seeds): 40.0% | Control Value ([1]; carboxamide compound (1) 0.002 g/kg seeds): 54.3% | Control Value ([1]; carboxamide compound (1) 0.01 g/kg seeds): 65.7%

CCNc1nc(CC)c(C(=O)NC(C#N)c2cccs2)s1 (stereo not drawn) [Ethaboxam, ethaboxam]
Control Value ([2]; ethaboxam 0.00625 g/kg seeds): 19.4% | Control Value ([2]; ethaboxam 0.025 g/kg seeds): 32.3% | Control Value ([2]; ethaboxam 0.1 g/kg seeds): 48.4% | Control Value ([3]; ethaboxam 0.075 g/kg seeds): 46.9% | Control Value ([3]; ethaboxam 0.15 g/kg seeds): 56.2% | Control Value ([3]; ethaboxam 0.3 g/kg seeds): 62.5%

N#Cc1c[nH]cc1-c1cccc2c1OC(F)(F)O2 [Fludioxonil, fludioxonil]
Control Value ([1]; fludioxonil 0.004 g/kg seeds): 25.7% | Control Value ([1]; fludioxonil 0.02 g/kg seeds): 37.1% | Control Value ([1]; fludioxonil 0.1 g/kg seeds): 48.6%

COCC(=O)N(c1c(C)cccc1C)C(C)C(=O)OC (stereo not drawn) [Metalaxyl, metalaxyl]
Control Value ([3]; metalaxyl 0.01 g/kg seeds): 40.6% | Control Value ([3]; metalaxyl 0.04 g/kg seeds): 50.0% | Control Value ([3]; metalaxyl 0.16 g/kg seeds): 59.4%

COP(=S)(OC)Oc1c(Cl)cc(C)cc1Cl [Tolclofos-Methyl, tolclofos-methyl]
Control Value ([1]; tolclofos-methyl 0.01 g/kg seeds): 11.4% | Control Value ([1]; tolclofos-methyl 0.05 g/kg seeds): 28.6% | Control Value ([1]; tolclofos-methyl 0.25 g/kg seeds): 42.8%
